According to the NIST ThermoML archive (doi:10.1021/je050062a):

Assays:
[1] = Liquid; for mass density: 298.15 K, 101.33 kPa
[2] = refractive index (Na D-line) (dimensionless); settings: 298.15 K; 101.33 kPa; Liquid; Standard Abbe refractometry

CCCC(C)C [2-methylpentane]
Settings | mass density [kg/m3] | refractive index
[1] | 648.46 | –
[2] | – | 1.36877

Settings | vapor or sublimation pressure [kPa]
[1], 330 K | 90.76

CC(C)C(C)O (configuration not stated) [3-methyl-2-butanol]
Settings | mass density [kg/m3] | refractive index
[1] | 813.42 | –
[2] | – | 1.407

[1]
Settings | vapor or sublimation pressure [kPa]
323.61 K | 6.527
329.8 K | 9.28
330 K | 9.35
333.31 K | 11.16
336.52 K | 13.19
340 K | 15.7
340.67 K | 16.23
346.13 K | 21.09
354.08 K | 30.24
360.75 K | 40.25
365.98 K | 49.79
370.47 K | 59.38
374.44 K | 69.02
380.99 K | 87.65
382.59 K | 92.61

CC(=O)C(C)C [3-methyl-2-butanone]
Settings | mass density [kg/m3] | refractive index
[1] | 799.55 | –
[2] | – | 1.3862

[1]
Settings | vapor or sublimation pressure [kPa]
310.45 K | 12.1
318.08 K | 16.98
324.32 K | 22.06
328.85 K | 26.46
330 K | 27.69
333.49 K | 31.7
337.18 K | 36.45
340 K | 40.45
340.26 K | 40.84
346.23 K | 50.54
348.87 K | 55.4
353.57 K | 64.95
357.9 K | 74.9
361.86 K | 84.97
365.36 K | 94.78
